The text below walks through data of publication PMC9224512, “New Insights into the Determinants of Specificity in Human Type I Arginase: Generation of a Mutant That Is Only Active with Agmatine as Substrate” (International Journal of Molecular Sciences, 2022).

The target of assay [1] is T1, WT-arginase (human arginase type I) (Homo sapiens, UniProt P05089).
T1 construct: made in house; host or cells: E. coli JM109
T1 sequence (P05089 1-322): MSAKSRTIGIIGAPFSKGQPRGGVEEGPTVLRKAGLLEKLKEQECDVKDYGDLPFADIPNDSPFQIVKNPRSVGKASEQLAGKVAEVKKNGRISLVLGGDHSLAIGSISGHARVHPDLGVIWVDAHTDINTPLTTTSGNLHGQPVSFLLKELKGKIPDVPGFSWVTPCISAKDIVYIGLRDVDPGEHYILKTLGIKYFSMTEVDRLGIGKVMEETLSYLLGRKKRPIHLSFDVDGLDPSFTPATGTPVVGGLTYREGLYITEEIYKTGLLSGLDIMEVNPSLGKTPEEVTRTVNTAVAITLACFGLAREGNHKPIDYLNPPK
Briefly: Kinetic and inhibition studies, wild-type human arginase type I. The class given is biochemical. Conditions: for Inhibition type / Kis (Ki): substrate arginine. The protocol: (§1) Bacterial cultures were grown with shaking at 37 °C in Luria Broth media, in the presence of ampicillin (100 μg/mL). The wild-type and mutant human liver arginase cDNAs were directionally cloned into the pBluescript II KS(+) expression vector and then expressed in E. coli JM109, following induction with 1 mM isopropyl β-D-thiogalactopyranoside. The bacterial cells were disrupted by sonication on ice (5 × 30 s pulses), centrifuged for 20 min at 12,000× g, and the obtained supernatant was precipitated with ammonium sulfate (60% saturation). The pellet, collected by centrifugation at 12,000× g for 10 min, was re-suspended in buffer 5 mM Tris–HCl (pH 7.5) containing 2 mM MnCl2 and dialyzed for 6 h at 4 °C against the same buffer. After incubation with 5 mM MnCl2 for 10 min at 60 °C, the enzyme variants were purified as previously described. The purity of the enzymes was evaluated by SDS–PAGE stained by Coomassie blue and immunodetection using an anti- rat arginase I antibody.
(§2) All assays were initiated by adding the enzyme to a previously equilibrated buffer with the substrate in solution (the concentrations of used substrates were between 0.2–3 fold the Km). Urea was determined by a colorimetric method with α-isonitrosopropiophenone. The protein concentrations were determined by the Bradford’s method, with bovine serum albumin as standard. Initial velocity and enzymatic inhibition experiments were performed in duplicate and repeated three times. The inhibitory patterns were initially determined by double reciprocal plots and re-plots of intercepts and slopes versus inhibitor concentrations. […] Velocities are expressed as μmol of urea/10 min.

For assay [2], the target named is T2, human arginase type I N130D (Homo sapiens, UniProt P05089, N130D).
T2 sequence (P05089 1-322 N130D): T1 sequence (P05089 1-322) with N130D
Put plainly: Kinetic and inhibition studies, N130D mutant. It counts as biochemical. To be noted: arginine 5 mM, pH 9.5; Figure 3A. How it is done:
as §1
(§3) The single, double, triple, and chimera variants of human arginase type I were obtained by PCR, using the QuickChange site-directed mutagenesis kit (Stratagene, La Jolla, CA, USA); the plasmid pBluescript II KS(+) containing the human liver arginase cDNA was used as template. To obtain the chimeric species of human arginase type I, serial mutations were made in each loop to be modified, using as template DNA the wild-type arginase gene or the previous done mutation, subcloned in the plasmid pBluescript II KS (+). Specifically, the residues present in the arginase structure were replaced by those corresponding to the agmatinase sequence of E. coli.
as §2

Assay [3] concerns the target T3, human arginase type I S137C (Homo sapiens, UniProt P05089, S137C).
T3 sequence (P05089 1-322 S137C): T1 sequence (P05089 1-322) with S137C
Briefly: Kinetic and inhibition studies, S137C mutant. The class given is biochemical. Conditions: arginine 5 mM, pH 9.5; Figure 3A. The protocol: as §1, §3, §2

The target of assay [4] is T4, human arginase type I N139D (Homo sapiens, UniProt P05089, N139D).
T4 sequence (P05089 1-322 N139D): T1 sequence (P05089 1-322) with N139D
Briefly: Kinetic and inhibition studies, N139D mutant. It counts as biochemical. To be noted: arginine 5 mM, pH 9.5; Figure 3A. The protocol: as §1, §3, §2

In assay [5] the target is T5, E. coli agmatinase (Escherichia coli, UniProt P60651).
T5 sequence (P60651 1-306): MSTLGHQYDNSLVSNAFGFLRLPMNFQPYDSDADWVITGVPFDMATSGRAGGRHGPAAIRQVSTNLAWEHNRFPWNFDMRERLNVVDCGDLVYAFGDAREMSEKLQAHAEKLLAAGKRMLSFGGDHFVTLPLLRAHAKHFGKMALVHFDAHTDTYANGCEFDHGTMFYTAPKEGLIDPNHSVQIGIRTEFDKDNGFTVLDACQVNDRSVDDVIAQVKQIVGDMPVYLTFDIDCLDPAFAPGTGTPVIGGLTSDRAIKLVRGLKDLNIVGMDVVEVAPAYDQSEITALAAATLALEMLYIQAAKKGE
Put plainly: Kinetic studies, E. coli agmatinase. The class given is biochemical. Conditions: substrate = labelled compound; n/a = no activity with the substrate. How it is done:
as §2

In assay [6] the target is T6, Chimera A1 (I129T/N130Y/T131A) of human arginase type I (Homo sapiens, UniProt P05089, I129T/N130Y/T131A).
T6 sequence (P05089 1-322 I129T/N130Y/T131A): T1 sequence (P05089 1-322) with I129T, N130Y, T131A
Briefly: Kinetic and inhibition studies, Chimera A1. It counts as biochemical. To be noted: substrate arginine. How it is done: as §1, §3, §2

Assay [7] concerns rat liver arginase. Also on record: method as in PMID 8031143. To be noted: substrate agmatine; cited from earlier work.
Assay [8] has as its target T7, Chimera A2 (I129T/N130Y/T131A+∆ P132-T134) of human arginase type I (Homo sapiens, UniProt P05089, DEL129-131/I129T/L133Y/N130Y/P132T/T134A).
T7 construct: made in house; host or cells: E. coli JM109
T7 sequence (P05089 with tags, fused parts or gaps DEL129-131/P132T/L133Y/T134A): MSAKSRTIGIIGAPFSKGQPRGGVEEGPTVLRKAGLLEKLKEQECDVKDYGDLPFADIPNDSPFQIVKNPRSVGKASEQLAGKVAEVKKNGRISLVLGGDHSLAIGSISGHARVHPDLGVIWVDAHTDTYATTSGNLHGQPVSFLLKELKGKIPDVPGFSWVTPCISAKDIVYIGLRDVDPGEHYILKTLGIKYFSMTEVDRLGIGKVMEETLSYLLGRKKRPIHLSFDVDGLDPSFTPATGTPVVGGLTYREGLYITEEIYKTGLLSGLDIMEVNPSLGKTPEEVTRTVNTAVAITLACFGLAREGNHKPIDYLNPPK
Briefly: Kinetic and inhibition studies, Chimera A2. The class given is biochemical. Conditions: substrate agmatine. The protocol: as §1, §3, §2

For assay [9], the target named is T8, type I human arginase D181T (Homo sapiens, UniProt P05089, D181T).
T8 sequence (P05089 1-322 D181T): T1 sequence (P05089 1-322) with D181T
Put plainly: Kinetic and inhibition studies, D181T mutant. It counts as biochemical. To be noted: substrate arginine. The protocol: as §1, §3, §2

The target in assay [10] is T9, type I human arginase V182E (Homo sapiens, UniProt P05089, V182E).
T9 sequence (P05089 1-322 V182E): T1 sequence (P05089 1-322) with V182E
Put plainly: Kinetic and inhibition studies, V182E mutant. Conditions: substrate arginine. The class given is biochemical. The protocol: as §1, §3, §2

Assay [11] concerns the target T10, type I human arginase D181T/V182E (Homo sapiens, UniProt P05089, D181T/V182E).
T10 construct: made in house; host or cells: E. coli JM109
T10 sequence (P05089 1-322 D181T/V182E): T1 sequence (P05089 1-322) with D181T, V182E
Put plainly: Kinetic and inhibition studies, D181T/V182E double mutant. The class given is biochemical. To be noted: substrate arginine. The protocol:
as §1, §3, §2

In assay [12] the target is T11, type I human arginase D181T/V182E + ins F (Homo sapiens, UniProt P05089, D181E/D181T/INS180T/V182E/V182F).
T11 sequence (P05089 with tags, fused parts or gaps INS180T/D181E/V182F): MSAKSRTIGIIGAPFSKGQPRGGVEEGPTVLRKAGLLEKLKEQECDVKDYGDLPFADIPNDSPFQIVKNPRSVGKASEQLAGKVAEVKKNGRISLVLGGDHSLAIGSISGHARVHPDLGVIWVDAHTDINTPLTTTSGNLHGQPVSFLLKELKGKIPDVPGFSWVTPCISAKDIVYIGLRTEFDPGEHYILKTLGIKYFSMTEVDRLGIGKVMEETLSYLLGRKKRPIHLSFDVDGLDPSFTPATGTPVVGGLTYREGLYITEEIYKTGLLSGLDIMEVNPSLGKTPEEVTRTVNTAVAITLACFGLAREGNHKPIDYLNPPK
Briefly: Kinetic and inhibition studies, D181T/V182E + ins F. To be noted: substrate arginine. The class given is biochemical. How it is done:
as §1, §3, §2

Numbering of substitutions follows the chain as printed.

Take `N=C(N)NCCCCN` [Agmatine, 1-amino-4-guanidinobutane]: the “Inhibition of arginase activity by agmatine” value in [1] (arginine 5 mM, pH 9.5, Figure 3A) was “poorly inhibited”; in assay [2] it was “markedly sensitive”; in assay [3] it was “markedly sensitive”; in [4], “markedly sensitive”. Besides, the “Inhibition type” value in assay [1] and in assay [6] was “Competitive” in each case. The “Kis (Ki)” value is recorded as 42 ± 5 mM in assay [1] (pH 9.5) and 27 ± 2 mM in assay [6]. In addition, the turnover number (kcat) in [5] is 120 ± 10 s⁻¹. Also, in assay [7], the “kcat, times lower than for arginine” value is “approximately 5000 times”.
For `N=C(N)N` [Guanidine, guanidine], the “Inhibition type” value in [1] is recorded as “Competitive”; in assay [6], “Competitive”; in [8], “linear competitive inhibition”; in assay [9], “Competitive”; in assay [10] it was “Competitive”; in assay [11], “Competitive”. For the same compound, the Inhibition type result in assay [12] is recorded as “Competitive”. In addition, the entries for the “Kis (Ki)” value in assay [1] (pH 9.5), in assay [6] and in assay [11] were 56 ± 4 mM, 38 ± 6 mM and 80 ± 5 mM, respectively. Further, the Kis in assay [8] amounted to 40 ± 6 mM; in [9], 85 ± 10 mM; in assay [10], 89 ± 12 mM; in assay [12], 70 ± 10 mM.
As to `NCCCC[C@H](N)C(=O)O` [Lysine, lysine], the “Kis (Ki)” value in [1] (pH 9.5) came out at 5 mM. In addition, in assay [11], the Inhibition type result is “competitively inhibited” and the “Kis (Ki)” value turned out to be 42 mM.
Take `NCCCCN` [Putrescine, putrescine]: the “Inhibition type” value in assay [8] is reported as “competitive”; in [11], “competitively inhibited”.

As usually defined, the kcat is the number of substrate molecules converted per active site and unit of time at saturation.
